Results on 19 compounds are retold here after patent US11008337B2, “Chiral diaryl macrocycles as modulators of protein kinases” (Turning Point Therapeutics, Inc., priority 2015, dated 2021).

Holding throughout (format): cell-based
Assay [1] deals with Colorectal cell lines KM 12 (harboring endogenous TPM3-TRKA fusion gene). Kind of assay: Cell proliferation assay, KM12 cells (CellTiter-Glo). The following applies: Homo sapiens, 72 hours incubation. On the procedure: (§1) Cell Proliferation Assays.
Colorectal cell lines KM 12 (harboring endogenous TPM3-TRKA fusion gene) cells were cultured in DMEM medium, supplemented with 10% fetal bovine serum and 100 U/mL of penicillin/streptomycin. 5000 cells were seeded in 384 well white plate for 24 hours before compounds treatment. Cell proliferation was measured using CellTiter-Glo luciferase-based ATP detection assay (Promega) following the manufactures's protocol after 72 hours incubation. IC50 determinations were performed using GraphPad Prism software (GraphPad, Inc., San Diego, Calif.). […] 5000 cells were seeded in 384 well white plate for 24 hours before compounds treatment. Cell proliferation was measured using CellTiter-Glo luciferase-based ATP detection assay (Promega) following the manufactures's protocol after 72 hours incubation. IC50 determinations were performed using GraphPad Prism software (GraphPad, Inc., San Diego, Calif.).
For orientation: Cellular ATP, detected with luciferase, serves as a proxy for viable cell number.

In assay [2] the test system is essential thrombocythemia cell line SET-2 cells (harboring endogenous JAK2 point mutation). The assay is described as follows: Cell proliferation assay, SET-2 cells (CellTiter-Glo). The following applies: Homo sapiens, 72 hours incubation, read-out: Cell Proliferation IC50 SET2. On the procedure:
as §1
Colorectal cell lines KM 12 (harboring endogenous TPM3-TRKA fusion gene) cells were cultured in DMEM medium, supplemented with 10% fetal bovine serum and 100 U/mL of penicillin/streptomycin. 5000 cells were seeded in 384 well white plate for 24 hours before compounds treatment. Cell proliferation was measured using CellTiter-Glo luciferase-based ATP detection assay (Promega) following the manufactures's protocol after 72 hours incubation. IC50 determinations were performed using GraphPad Prism software (GraphPad, Inc., San Diego, Calif.). Alternatively, essential thrombocythemia cell line SET-2 cells (harboring endogenous JAK2 […] point mutation) or T cell lymphoma Karpas-299 cell line (harboring endogenous NPM-ALK fusion gene) were cultured in RPMI medium, supplemented with 10% fetal bovine serum and 100 U/mL of penicillin/streptomycin. 5000 cells were seeded in 384 well white plate for 24 hours before compounds treatment. Cell proliferation was measured using CellTiter-Glo luciferase-based ATP detection assay (Promega) following the manufactures's protocol after 72 hours incubation. IC50 determinations were performed using GraphPad Prism software (GraphPad, Inc., San Diego, Calif.).

For another assay, the target named is T1, EML4-ALK Ba/F3 (Homo sapiens, UniProt Q9UM73).
T1 construct: fused on or other part: Q9HC35 (Echinoderm microtubule-associated protein-like 4)
T1 sequence (Q9UM73 whole entry, change not shown, the tested form may be a part): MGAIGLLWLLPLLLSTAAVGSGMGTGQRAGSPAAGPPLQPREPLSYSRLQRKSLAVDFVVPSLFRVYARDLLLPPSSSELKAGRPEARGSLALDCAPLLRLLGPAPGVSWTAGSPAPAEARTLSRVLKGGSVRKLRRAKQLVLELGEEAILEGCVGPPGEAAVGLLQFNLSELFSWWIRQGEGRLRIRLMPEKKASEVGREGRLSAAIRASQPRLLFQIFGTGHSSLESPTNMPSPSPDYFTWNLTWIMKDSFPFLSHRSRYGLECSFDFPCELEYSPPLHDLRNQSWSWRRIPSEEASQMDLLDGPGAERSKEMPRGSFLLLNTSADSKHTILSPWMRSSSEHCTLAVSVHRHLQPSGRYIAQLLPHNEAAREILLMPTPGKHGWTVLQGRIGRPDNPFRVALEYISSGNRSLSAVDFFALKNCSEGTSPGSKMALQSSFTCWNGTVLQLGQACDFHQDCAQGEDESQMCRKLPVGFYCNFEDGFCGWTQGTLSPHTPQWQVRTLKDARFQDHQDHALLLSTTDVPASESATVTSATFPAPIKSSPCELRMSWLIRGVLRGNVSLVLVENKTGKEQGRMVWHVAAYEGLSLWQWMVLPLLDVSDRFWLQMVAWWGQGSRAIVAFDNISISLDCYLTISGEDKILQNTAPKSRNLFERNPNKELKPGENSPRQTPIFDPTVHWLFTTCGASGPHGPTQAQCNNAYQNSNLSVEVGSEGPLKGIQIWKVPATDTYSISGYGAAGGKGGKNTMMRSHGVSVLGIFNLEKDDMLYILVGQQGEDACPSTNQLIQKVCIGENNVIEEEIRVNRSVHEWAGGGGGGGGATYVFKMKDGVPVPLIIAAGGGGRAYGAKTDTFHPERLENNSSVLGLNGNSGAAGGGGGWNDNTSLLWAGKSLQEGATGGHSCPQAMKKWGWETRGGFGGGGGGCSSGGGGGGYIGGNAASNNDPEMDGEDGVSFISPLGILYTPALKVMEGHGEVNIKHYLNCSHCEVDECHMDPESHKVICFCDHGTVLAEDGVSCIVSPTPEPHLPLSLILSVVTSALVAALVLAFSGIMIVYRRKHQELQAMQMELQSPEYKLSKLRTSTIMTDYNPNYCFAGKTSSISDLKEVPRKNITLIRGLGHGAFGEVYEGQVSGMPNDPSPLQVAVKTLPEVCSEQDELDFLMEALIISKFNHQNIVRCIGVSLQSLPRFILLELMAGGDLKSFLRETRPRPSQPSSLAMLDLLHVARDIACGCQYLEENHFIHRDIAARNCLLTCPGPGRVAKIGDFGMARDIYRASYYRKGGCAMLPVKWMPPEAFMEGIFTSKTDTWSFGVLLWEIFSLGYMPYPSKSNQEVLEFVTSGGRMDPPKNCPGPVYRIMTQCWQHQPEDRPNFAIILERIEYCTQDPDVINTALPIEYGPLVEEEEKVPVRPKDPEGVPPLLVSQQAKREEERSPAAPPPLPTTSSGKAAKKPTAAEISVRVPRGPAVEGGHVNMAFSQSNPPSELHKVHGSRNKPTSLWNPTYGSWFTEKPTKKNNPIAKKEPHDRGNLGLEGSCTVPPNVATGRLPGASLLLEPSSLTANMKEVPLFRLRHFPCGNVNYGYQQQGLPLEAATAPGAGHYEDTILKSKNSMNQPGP
The assay is described as follows: Cell proliferation assay, EML4-ALK Ba/F3 stable cell line (CellTiter-Glo). The following applies: Ba/F3-EML4-ALK wild type (variant 1) cells, 72 hours compound incubation; read-out: Cell Proliferation IC50 EML4-ALK Ba/F3. The text has this: Creation of CD74-ROS1 and EML4-ALK Ba/F3 Stable Cell Lines and Cell Proliferation Assays.
The CD74-ROS1 wild-type gene and EML4-ALK wild-type gene (variant 1) were synthesized at GenScript and cloned into pCDH-CMV-MCS-EF1-Puro plasmid (System Biosciences, Inc). Ba/F3-CD74-ROS1 and Ba/F3-EML4-ALK wild type cell lines were generated by infecting Ba/F3 cells with lentivirus containing CD74-ROS1 wide-type and EML4-ALK wild type. Stable cell lines were selected by puromycin treatment, followed by IL-3 withdrawal. 3000 cells were seeded in 384 well white plate overnight before compound treatment. Cell proliferation was measured using CellTiter-Glo luciferase-based ATP detection assay (Promega) following the manufactures's protocol after 72 hours of various concentration of compound incubation. IC50 determinations were performed using GraphPad Prism software (GraphPad, Inc., San Diego, Calif.).

`C[C@H]1Nc2ccn3ncc(c3n2)C(=O)NCCOc2ccccc21` [Compound 36, (13R)-13-methyl-6,7,13,14-tetrahydro-1,15-ethenopyrazolo[4,3-f][1,4,8,10]benzoxatriazacyclotridecin-4(5H)-one]: the IC50 was found to be 7.8 nM in assay [1] and 1240 nM in assay [2].

For `Cc1cn2ncc3c2nc1N[C@H](C)c1ccccc1OCCNC3=O` [Compound 37, (13R)-13,17-dimethyl-6,7,13,14-tetrahydro-1,15-ethenopyrazolo[4,3-f][1,4,8,10]benzoxatriazacyclotridecin-4(5H)-one], the figures for the IC50 in assay [1] and in assay [2] were 300 nM and 5000 nM, respectively.

In assay [1], `CCc1nn2ccc3nc2c1C(=O)NC[C@H](C)Oc1ccc(F)cc1[C@@H](C)N3` [Compound 39, (7S,13R)-3-ethyl-11-fluoro-7,13-dimethyl-6,7,13,14-tetrahydro-1,15-ethenopyrazolo[4,3-f][1,4,8,10]benzoxatriazacyclotridecin-4(5H)-one] showed an IC50 of 315 nM. Moreover, the GI50 at EML4-ALK Ba/F3 was determined as 3000 nM.

Consider `C[C@H]1CNC(=O)c2c[nH]c3ncc(nc23)N[C@H](C)c2cc(F)ccc2O1` [Compound 40, (7R,13S)-9-fluoro-7,13-dimethyl-6,7,14,15-tetrahydro-2H-3,5-(azenometheno)pyrrolo[3,4-f][1,4,8,10]benzoxatriazacyclotridecin-16(13H)-one], for which, in assay [1], the IC50 was determined as 42 nM. In addition, at EML4-ALK Ba/F3, the GI50 was 3000 nM.

Take `C[C@H]1Nc2ccn3ncc(c3n2)C(=O)N[C@H]2CCC[C@H]2Oc2ccc(F)cc21` [Compound 41, (3aR,9R,17aS)-7-fluoro-9-methyl-1,2,3,3a,9,10,17,17a-octahydro-16H-11,13-ethenocyclopenta[b]pyrazolo[4,3-f][1,4,8,10]benzoxatriazacyclotridecin-16-one]: the IC50 is 3 nM in assay [1] and 78.5 nM in assay [2]. The GI50 at EML4-ALK Ba/F3 is 150 nM.

With `C[C@H]1Nc2ccn3ncc(c3n2)C(=O)N[C@@H]2CCC[C@@H]2Oc2ccc(F)cc21` [Compound 42, (3aS,9R,17aR)-7-fluoro-9-methyl-1,2,3,3a,9,10,17,17a-octahydro-16H-11,13-ethenocyclopenta[b]pyrazolo[4,3-f][1,4,8,10]benzoxatriazacyclotridecin-16-one], the results for the IC50 in assay [1] and in assay [2] were 0.2 nM and 30 nM, respectively. For the same compound, the GI50 at EML4-ALK Ba/F3 was found to be 80 nM.

For `C[C@H]1Nc2ccn3ncc(c3n2)C(=O)N[C@@H]2CCC[C@H]2Oc2ccc(F)cc21` [Compound 43, (3aR,9R,17aR)-7-fluoro-9-methyl-1,2,3,3a,9,10,17,17a-octahydro-16H-11,13-ethenocyclopenta[b]pyrazolo[4,3-f][1,4,8,10]benzoxatriazacyclotridecin-16-one], the figures for the IC50 in assay [1] and in assay [2] were 1 nM and 44 nM, respectively. Moreover, the GI50 at EML4-ALK Ba/F3 is 80 nM.

Turning to `C[C@H]1Nc2ccn3ncc(c3n2)C(=O)N[C@H]2CCCC[C@@H]2Oc2ccc(F)cc21` [Compound 44, (4aS,10R,18aS)-8-fluoro-10-methyl-2,3,4,4a,10,11,18,18a-octahydro-12,14-ethenodibenzo[b,l]pyrazolo[4,3-f][1,4,8,10]oxatriazacyclotridecin-17(1H)-one], the IC50 in assay [1] turned out to be 56 nM; in assay [2], 1800 nM. Moreover, the GI50 on EML4-ALK Ba/F3 was 3000 nM.

Consider `C[C@H]1Nc2ccn3ncc(c3n2)C(=O)N[C@@H]2CCCC[C@H]2Oc2ccc(F)cc21` [Compound 45, (4aR,10R,18aR)-8-fluoro-10-methyl-2,3,4,4a,10,11,18,18a-octahydro-12,14-ethenodibenzo[b,l]pyrazolo[4,3-f][1,4,8,10]oxatriazacyclotridecin-17(1H)-one], for which the IC50 in assay [1] was determined as 0.4 nM; in assay [2] it was 206 nM. For the same compound, the GI50 on EML4-ALK Ba/F3 is over 10000 nM.

Turning to `C[C@H]1Nc2ccn3ncc(c3n2)C(=O)N[C@H]2CCC[C@@H]2Oc2ccc(F)cc21` [Compound 46, (3aS,9R,17aS)-7-fluoro-9-methyl-1,2,3,3a,9,10,17,17a-octahydro-16H-11,13-ethenocyclopenta[b]pyrazolo[4,3-f][1,4,8,10]benzoxatriazacyclotridecin-16-one], the results for the IC50 in assay [1] and in assay [2] were 11 nM and 400 nM, respectively. On EML4-ALK Ba/F3, the GI50 is 2000 nM.

On to `C[C@H]1Nc2ccn3ncc(c3n2)C(=O)N[C@@H]2CCCC[C@@H]2Oc2ccc(F)cc21` [Compound 47, (4aS,10R,18aR)-8-fluoro-10-methyl-2,3,4,4a,10,11,18,18a-octahydro-12,14-ethenodibenzo[b,l]pyrazolo[4,3-f][1,4,8,10]oxatriazacyclotridecin-17(1H)-one], for which the IC50 in assay [1] was found to be 6 nM; in assay [2], 127 nM. Also, the GI50 on EML4-ALK Ba/F3 came to 504 nM.

With `C[C@H]1Nc2ccn3ncc(c3n2)C(=O)N[C@H]2CNC[C@H]2Oc2ccc(F)cc21` [Compound 48, (3aR,9R,17aS)-7-fluoro-9-methyl-1,2,3,3a,9,10,17,17a-octahydro-16H-11,13-ethenopyrazolo[4,3-f]pyrrolo[3,4-b][1,4,8,10]benzoxatriazacyclotridecin-16-one], the IC50 in assay [1] and in assay [2] was over 10000 nM each time. Besides, the GI50 at EML4-ALK Ba/F3 stood at 5000 nM.

In the case of `C[C@H]1Nc2ccn3ncc(c3n2)C(=O)N[C@H]2CNC[C@@H]2Oc2ccc(F)cc21` [Compound 49, (3aS,9R,17aS)-7-fluoro-9-methyl-1,2,3,3a,9,10,17,17a-octahydro-16H-11,13-ethenopyrazolo[4,3-f]pyrrolo[3,4-b][1,4,8,10]benzoxatriazacyclotridecin-16-one], in assay [1], the IC50 came to 2410 nM. On EML4-ALK Ba/F3, the GI50 is over 10000 nM.

In assay [1], `C[C@H]1Nc2ccn3ncc(c3n2)C(=O)N2CC[C@H](C2)Oc2ccc(F)cc21` [Compound 50, (8R,14R)-12-fluoro-14-methyl-7,8,14,15-tetrahydro-4H,6H-1,16-etheno-5,8-methanopyrazolo[4,3-g][1,5,9,11]benzoxatriazacyclotetradecin-4-one] came in with an IC50 of 178 nM. Further, on EML4-ALK Ba/F3, the GI50 was 3000 nM.

Compound `C[C@H]1Nc2ccn3ncc(c3n2)C(=O)N2CC[C@@H](C2)Oc2ccc(F)cc21` [Compound 51, (8S,14R)-12-fluoro-14-methyl-7,8,14,15-tetrahydro-4H,6H-1,16-etheno-5,8-methanopyrazolo[4,3-g][1,5,9,11]benzoxatriazacyclotetradecin-4-one] came in with an IC50 in assay [1] of 51.8 nM. On EML4-ALK Ba/F3, the GI50 is over 10000 nM.

With `C[C@H]1Nc2ccn3ncc(c3n2)C(=O)N2CCC[C@H](C2)Oc2ccc(F)cc21` [Compound 52, (9R,15R)-13-fluoro-15-methyl-6,7,8,9,15,16-hexahydro-4H-1,17-etheno-5,9-methanopyrazolo[4,3-h][1,6,10,12]benzoxatriazacyclopentadecin-4-one], the IC50 was 8.7 nM in assay [1] and 768 nM in assay [2]. The GI50 at EML4-ALK Ba/F3 turned out to be 1480 nM.

`C[C@H]1Nc2ccn3ncc(c3n2)C(=O)N2CCC[C@@H](C2)Oc2ccc(F)cc21` [Compound 53, (9S,15R)-13-fluoro-15-methyl-6,7,8,9,15,16-hexahydro-4H-1,17-etheno-5,9-methanopyrazolo[4,3-h][1,6,10,12]benzoxatriazacyclopentadecin-4-one]: the IC50 came out at 37.3 nM in assay [1] and 505 nM in assay [2]. Moreover, the GI50 at EML4-ALK Ba/F3 amounted to 3000 nM.

As for `C[C@H]1Nc2ccn3ncc(c3n2)C(=O)N2CCC(CC2)Oc2ccc(F)cc21` [Compound 54], the IC50 in assay [1] is 464 nM; in assay [2] it was over 10000 nM. Further, the GI50 on EML4-ALK Ba/F3 is over 10000 nM.

Consider `CNC[C@@H]1CNC(=O)c2cnn3ccc(nc23)N[C@H](C)c2cc(F)ccc2O1` [Compound 56, (7R,13R)-11-fluoro-13-methyl-7-[(methylamino)methyl]-6,7,13,14-tetrahydro-1,15-ethenopyrazolo[4,3-f][1,4,8,10]benzoxatriazacyclotridecin-4(5H)-one], for which the IC50 in assay [1] came to 527 nM. In addition, the GI50 at EML4-ALK Ba/F3 is over 10000 nM.
